Laboratory results: publication PMC9120017, “Inhibition mechanism of the chloride channel TMEM16A by the pore blocker 1PBC” (Nature Communications, 2022)
Read-outs that look alike come from different tables or passages of the source.

Molecular target: T1, mouse TMEM16A mutant G558P (Mus musculus, UniProt Q8BHY3, G558P)
T1 construct: expressed in transfected cells; host or cells: HEK293T
T1 sequence (Q8BHY3 1-960 G558P): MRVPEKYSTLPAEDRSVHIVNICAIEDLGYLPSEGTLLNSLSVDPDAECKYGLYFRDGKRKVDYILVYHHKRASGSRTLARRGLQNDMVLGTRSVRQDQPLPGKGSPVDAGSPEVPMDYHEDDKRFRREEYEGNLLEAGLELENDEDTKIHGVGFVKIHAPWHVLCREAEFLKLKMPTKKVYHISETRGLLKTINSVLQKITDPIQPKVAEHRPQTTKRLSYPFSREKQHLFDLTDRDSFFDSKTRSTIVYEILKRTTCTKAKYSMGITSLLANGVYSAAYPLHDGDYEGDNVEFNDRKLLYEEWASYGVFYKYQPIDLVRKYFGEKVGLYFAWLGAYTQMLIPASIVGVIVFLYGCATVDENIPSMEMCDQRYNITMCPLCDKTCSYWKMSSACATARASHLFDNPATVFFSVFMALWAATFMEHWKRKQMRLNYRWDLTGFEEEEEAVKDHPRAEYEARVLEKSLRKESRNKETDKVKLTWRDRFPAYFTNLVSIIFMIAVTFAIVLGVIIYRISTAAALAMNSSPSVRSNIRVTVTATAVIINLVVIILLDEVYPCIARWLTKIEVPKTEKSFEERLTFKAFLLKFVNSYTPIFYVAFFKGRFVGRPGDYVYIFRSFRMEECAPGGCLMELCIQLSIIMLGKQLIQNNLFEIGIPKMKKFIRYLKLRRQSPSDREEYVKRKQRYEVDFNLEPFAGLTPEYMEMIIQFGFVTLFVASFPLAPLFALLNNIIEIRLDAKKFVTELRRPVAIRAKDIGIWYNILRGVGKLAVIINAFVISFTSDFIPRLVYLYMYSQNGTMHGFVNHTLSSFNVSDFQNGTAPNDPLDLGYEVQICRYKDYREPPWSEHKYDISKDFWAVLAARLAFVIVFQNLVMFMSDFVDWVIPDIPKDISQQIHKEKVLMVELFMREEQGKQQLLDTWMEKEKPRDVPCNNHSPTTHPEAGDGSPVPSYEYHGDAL
Experiment: Inside-out patch recording of 1PBC block, mutant G558P
Type: cell-based
Conditions: for remaining activity at 1 µM: 1PBC conc 1; for remaining activity at 1 µM / remaining activity at 3 µM / remaining activity at 10 µM / remaining activity at 30 µM / remaining activity at 100 µM: read-out: relative current in 1PBC (avr); for remaining activity at 3 µM: 1PBC conc 3; for remaining activity at 10 µM: 1PBC conc 10; for remaining activity at 30 µM: 1PBC conc 30; for remaining activity at 100 µM: 1PBC conc 100
Description: HEK293T cells (ATCC CRL-1573) were maintained in Dulbecco’s modified Eagle’s medium (DMEM; Sigma-Aldrich) supplemented with 10 U ml^−1 penicillin, 0.1 mg ml^−1 streptomycin (Sigma-Aldrich), 2 mM L-glutamine (Sigma-Aldrich), and 10% FBS (Sigma-Aldrich) in a humidified atmosphere containing 5% CO2 at 37 °C. HEK293S GnTI^− cells (ATCC CRL-3022) were maintained in HyClone HyCell TransFx-H medium (GE Healthcare) supplemented with 10 U ml^−1 penicillin, 0.1 mg ml^−1 streptomycin, 4 mM L-glutamine, 0.15% poloxamer 188 (Sigma-Aldrich), and 1% FBS in an atmosphere containing 5% CO2 at 185 rpm at 37 °C. The ac splice variant of mouse TMEM16A (UniProt ID: Q8BHY3), mouse TMEM16B (UniProt ID: Q8CFW1), or mouse TMEM16F (UniProt ID: Q6P9J9) bearing a 3C cleavage site, a Venus YFP, a Myc tag, and a Streptavidin-binding peptide (SBP) downstream of the open reading frame in a modified pcDNA3.1 vector (Invitrogen) were used as described previously[21],[31]. Mutations were introduced using a modified QuikChange method[58] and were verified by sequencing.
HEK293T cells were transfected with 3–4 μg DNA per 6 cm Petri dish using the calcium phosphate co-precipitation method and were used within 24–96 h after transfection. Recordings were performed on inside-out patches excised from HEK293T cells expressing the construct of interest. Patch pipettes were pulled from borosilicate glass capillaries (O.D. 1.5 mm, I.D. 0.86 mm, Sutter Instrument) and were fire-polished with a microforge (Narishige) before use. Pipette resistance was typically 3–8 MΩ when filled with the recording solutions detailed below. Seal resistance was typically 4 GΩ or higher. Voltage-clamp recordings were made using Axopatch 200B, Digidata 1550, and Clampex 10.7 (Molecular Devices). Analog signals were filtered with the in-built 4-pole Bessel filter at 10 kHz and were digitized at 20 kHz. Solution exchange was achieved using a gravity-fed system through a theta glass pipette mounted on an ultra-fast piezo-driven stepper (Siskiyou). […] All recordings were performed at 20 °C.
A symmetrical ionic condition was used throughout. Stock solution with Ca^2+-EGTA contained 150 mM NaCl, 5.99 mM Ca(OH)2, 5 mM EGTA, and 10 mM HEPES at pH 7.40. Stock solution with EGTA contained 150 mM NaCl, 5 mM EGTA, and 10 mM HEPES at pH 7.40. Free Ca^2+ concentrations were adjusted by mixing the stock solutions at the required ratios calculated using the WEBMAXC program (http://web.stanford.edu/~cpatton/webmaxcS.htm). Patch pipettes were filled with the stock solution with Ca^2+-EGTA, which has a free Ca^2+ concentration of 1 mM. 1PBC (ChemBridge) stock was reconstituted in anhydrous DMSO (Sigma-Aldrich) at 100 mM and stored at −20 °C. Working solutions with 1PBC were prepared by serial dilution. Unless otherwise stated, experiments were performed at a saturating Ca^2+ concentration as shown in Supplementary Table 1 and the primary data were corrected for current rundown as described previously[21],[25].
Concentration-response relations, obtained from the ratio of the I-V plots before and after the application of the blocker, were fitted to the Hill equation,1 I/Imax=1/1+IC50/[blocker]^h where I/Imax is the normalized current responses, IC50 defines the concentration at which inhibition is at its half-maximum, and h is the Hill coefficient.

IC50 (0 mV, 15 µM Ca2+): 6.23 µM
remaining activity at 1 µM (0 mV): 83.9%
remaining activity at 3 µM (0 mV): 66.6%
remaining activity at 10 µM (0 mV): 39.1%
remaining activity at 30 µM (0 mV): 18.8%
remaining activity at 100 µM (0 mV): 7.07%
I/Imax_+80mV (1 μM 1PBC): 0.7511
I/Imax_-80mV (1 μM 1PBC, -80 mV): 0.9508
I/Imax_+80mV (3 μM 1PBC): 0.5097
I/Imax_-80mV (3 μM 1PBC, -80 mV): 0.8567
I/Imax_+80mV (10 μM 1PBC): 0.2409
I/Imax_-80mV (10 μM 1PBC, -80 mV): 0.6177
Effect of mutation G558P on block by 1PBC (15 µM Ca2+): did not interfere with block
I/Imax_+80mV (30 μM 1PBC): 0.1115
I/Imax_-80mV (30 μM 1PBC, -80 mV): 0.3696
I/Imax_+80mV (100 μM 1PBC): 0.03071
I/Imax_-80mV (100 μM 1PBC, -80 mV): 0.1483
IC50 (20 mV, 15 µM Ca2+): 4.87 µM
remaining activity at 1 µM (20 mV): 81.1%
remaining activity at 3 µM (20 mV): 60.9%
remaining activity at 10 µM (20 mV): 34%
remaining activity at 30 µM (20 mV): 15.5%
remaining activity at 100 µM (20 mV): 5.33%
IC50 (40 mV, 15 µM Ca2+): 3.94 µM
remaining activity at 1 µM (40 mV): 78.3%
remaining activity at 3 µM (40 mV): 56.7%
remaining activity at 10 µM (40 mV): 28.5%
remaining activity at 30 µM (40 mV): 13.4%
remaining activity at 100 µM (40 mV): 4.84%
IC50 (60 mV, 15 µM Ca2+): 3.4 µM
remaining activity at 1 µM (60 mV): 75.9%
remaining activity at 3 µM (60 mV): 52.9%
remaining activity at 10 µM (60 mV): 26.1%
remaining activity at 30 µM (60 mV): 12%
remaining activity at 100 µM (60 mV): 3.75%
IC50 (80 mV, 15 µM Ca2+): 3.14 µM
remaining activity at 1 µM (80 mV): 75.1%
remaining activity at 3 µM (80 mV): 51%
remaining activity at 10 µM (80 mV): 24.1%
remaining activity at 30 µM (80 mV): 11.2%
remaining activity at 100 µM (80 mV): 3.07%
IC50 (100 mV, 15 µM Ca2+): 3.03 µM
remaining activity at 1 µM (100 mV): 75.6%
remaining activity at 3 µM (100 mV): 50.3%
remaining activity at 10 µM (100 mV): 22.1%
remaining activity at 30 µM (100 mV): 10.7%
remaining activity at 100 µM (100 mV): 2.38%
IC50 (120 mV, 15 µM Ca2+): 3.26 µM
remaining activity at 1 µM (120 mV): 77.2%
remaining activity at 3 µM (120 mV): 52.2%
remaining activity at 10 µM (120 mV): 23.4%
remaining activity at 30 µM (120 mV): 10.7%
remaining activity at 100 µM (120 mV): 2.42%
IC50 (140 mV, 15 µM Ca2+): 3.86 µM
remaining activity at 1 µM (140 mV): 81.4%
remaining activity at 3 µM (140 mV): 57%
remaining activity at 10 µM (140 mV): 25.2%
remaining activity at 30 µM (140 mV): 12%
remaining activity at 100 µM (140 mV): 3.17%
IC50 (-20 mV, 15 µM Ca2+): 7.94 µM
remaining activity at 1 µM (-20 mV): 86.7%
remaining activity at 3 µM (-20 mV): 72.3%
remaining activity at 10 µM (-20 mV): 44.1%
remaining activity at 30 µM (-20 mV): 22.2%
remaining activity at 100 µM (-20 mV): 8.82%
IC50 (-40 mV, 15 µM Ca2+): 10.4 µM
remaining activity at 1 µM (-40 mV): 89.5%
remaining activity at 3 µM (-40 mV): 77.5%
remaining activity at 10 µM (-40 mV): 50.6%
remaining activity at 30 µM (-40 mV): 26.7%
remaining activity at 100 µM (-40 mV): 9.6%
IC50 (-60 mV, 15 µM Ca2+): 13.4 µM
remaining activity at 1 µM (-60 mV): 92.1%
remaining activity at 3 µM (-60 mV): 80.7%
remaining activity at 10 µM (-60 mV): 56.7%
remaining activity at 30 µM (-60 mV): 32.1%
remaining activity at 100 µM (-60 mV): 12.3%
IC50 (-80 mV, 15 µM Ca2+): 17.1 µM
remaining activity at 1 µM (-80 mV): 95.1%
remaining activity at 3 µM (-80 mV): 85.7%
remaining activity at 10 µM (-80 mV): 61.8%
remaining activity at 30 µM (-80 mV): 37%
remaining activity at 100 µM (-80 mV): 14.8%
IC50 (-100 mV, 15 µM Ca2+): 21.1 µM
remaining activity at 1 µM (-100 mV): 96.1%
remaining activity at 3 µM (-100 mV): 88.1%
remaining activity at 10 µM (-100 mV): 66.8%
remaining activity at 30 µM (-100 mV): 41.5%
remaining activity at 100 µM (-100 mV): 17.8%
IC50 (-120 mV, 15 µM Ca2+): 25.4 µM
remaining activity at 1 µM (-120 mV): 98.5%
remaining activity at 3 µM (-120 mV): 90.8%
remaining activity at 10 µM (-120 mV): 71.2%
remaining activity at 30 µM (-120 mV): 45.8%
remaining activity at 100 µM (-120 mV): 19.8%
IC50 (-140 mV, 15 µM Ca2+): 30 µM
remaining activity at 1 µM (-140 mV): 100%
remaining activity at 3 µM (-140 mV): 92.8%
remaining activity at 10 µM (-140 mV): 74.7%
remaining activity at 30 µM (-140 mV): 49.7%
remaining activity at 100 µM (-140 mV): 22.2%
IC50 (G558P, V 0 mV): 6.23 µM
IC50 (G558P, V 20 mV): 4.87 µM
IC50 (G558P, V 40 mV): 3.94 µM
IC50 (G558P, V 60 mV): 3.4 µM
IC50 (G558P, V 80 mV): 3.14 µM
IC50 (G558P, V 100 mV): 3.03 µM
IC50 (G558P, V 120 mV): 3.26 µM
IC50 (G558P, V 140 mV): 3.86 µM
IC50 (G558P, V -20 mV): 7.94 µM
IC50 (G558P, V -40 mV): 10.4 µM
IC50 (G558P, V -60 mV): 13.4 µM
IC50 (G558P, V -80 mV): 17.1 µM
IC50 (G558P, V -100 mV): 21.1 µM
IC50 (G558P, V -120 mV): 25.4 µM
IC50 (G558P, V -140 mV): 30 µM
Structure (SMILES): N#Cc1c(C(F)(F)F)cc(O)n2c1nc1ccccc12 [1PBC]
